Source: ChEMBL document CHEMBL1201862, “PubChem BioAssay data set” (2004)
Blank lines part the entries; values can stand above or below the compound they belong to. Activity calls are given as the source filed them.

How the values were obtained:
Caspase-6 = target: T1, Caspase-6 (Homo sapiens, UniProt P55212); test: inhibition of CASP6 peptide cleavage – biochemical, VEID-R110 fluorescence, cherry-pick, dose response (AID 720632)
T1 sequence (P55212 whole entry): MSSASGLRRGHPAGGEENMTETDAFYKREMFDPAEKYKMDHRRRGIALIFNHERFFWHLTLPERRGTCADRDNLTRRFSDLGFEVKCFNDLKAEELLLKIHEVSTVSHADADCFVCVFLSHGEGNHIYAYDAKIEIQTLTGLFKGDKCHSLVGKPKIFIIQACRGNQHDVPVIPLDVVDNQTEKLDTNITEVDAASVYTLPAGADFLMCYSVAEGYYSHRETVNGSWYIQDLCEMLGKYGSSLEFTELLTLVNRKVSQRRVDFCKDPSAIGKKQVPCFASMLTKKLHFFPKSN

[1] = toxicity toward HepG2 liver cells – cell-based, plate reader, cherry-pick, antagonist series, cytotoxicity control, dose response (AID 743416); type: functional
[2] = target: Dual specificity tyrosine-phosphorylation-regulated kinase 1A (Rattus norvegicus, UniProt Q63470); type: biochemical, Homo sapiens
[3] = target: Ras and Rab interactor 1/Tyrosine-protein kinase ABL1 (Homo sapiens, UniProt P00519+Q13671); type: functional;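 further: biochemical TR-FRET dose-response test measuring inhibition of binding between Rin1 and Abl proteins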
[4] = target: T2, DNA repair and recombination protein RAD54-like (Homo sapiens, UniProt Q92698); test: RAD54 Holliday junction migration blockers – biochemical, fluorescence, cherry-picked samples, dose series, confirmation (AID 651657); type: functional
T2 sequence (Q92698 whole entry): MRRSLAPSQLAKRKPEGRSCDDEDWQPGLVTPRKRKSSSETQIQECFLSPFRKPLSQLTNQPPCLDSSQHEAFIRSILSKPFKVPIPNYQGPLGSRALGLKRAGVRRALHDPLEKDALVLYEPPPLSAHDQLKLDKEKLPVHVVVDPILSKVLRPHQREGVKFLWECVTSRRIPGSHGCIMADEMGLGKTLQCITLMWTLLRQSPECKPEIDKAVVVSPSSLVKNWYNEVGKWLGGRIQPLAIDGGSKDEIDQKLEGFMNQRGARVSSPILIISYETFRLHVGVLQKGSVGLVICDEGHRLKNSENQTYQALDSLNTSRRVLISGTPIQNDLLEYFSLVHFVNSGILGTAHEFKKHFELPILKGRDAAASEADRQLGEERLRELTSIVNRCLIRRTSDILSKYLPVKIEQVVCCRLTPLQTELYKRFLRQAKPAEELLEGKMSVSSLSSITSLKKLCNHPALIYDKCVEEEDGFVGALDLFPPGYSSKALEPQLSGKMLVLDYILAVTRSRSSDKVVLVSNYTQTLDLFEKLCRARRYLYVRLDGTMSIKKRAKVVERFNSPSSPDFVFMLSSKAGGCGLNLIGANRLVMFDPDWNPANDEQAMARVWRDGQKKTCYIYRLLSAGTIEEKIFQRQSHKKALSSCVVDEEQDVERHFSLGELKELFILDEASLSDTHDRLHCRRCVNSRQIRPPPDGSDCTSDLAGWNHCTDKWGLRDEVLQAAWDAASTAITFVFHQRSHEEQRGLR

Caspase-3 = target: T3, Caspase-3 (Homo sapiens, UniProt P42574); type: functional;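 further: Dose-response selectivity test against caspase-3 for candidate inhibitors of sentrin-specific proteases (SENPs)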
T3 sequence (P42574 whole entry): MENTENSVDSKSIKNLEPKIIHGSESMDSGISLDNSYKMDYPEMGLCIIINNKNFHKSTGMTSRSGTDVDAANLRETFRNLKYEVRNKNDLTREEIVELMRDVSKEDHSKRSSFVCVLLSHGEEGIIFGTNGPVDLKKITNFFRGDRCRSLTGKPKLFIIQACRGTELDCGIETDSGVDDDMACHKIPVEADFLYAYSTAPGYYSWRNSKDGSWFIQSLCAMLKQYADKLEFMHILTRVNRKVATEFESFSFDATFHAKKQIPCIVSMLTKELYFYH

[5] = target: T4, Sentrin-specific protease 8 (Homo sapiens, UniProt Q96LD8); type: functional;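 further: luminescence read-out of SENP8 inhibition, dose-response confirmation following an ultra-high-throughput screen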
T4 sequence (Q96LD8 whole entry): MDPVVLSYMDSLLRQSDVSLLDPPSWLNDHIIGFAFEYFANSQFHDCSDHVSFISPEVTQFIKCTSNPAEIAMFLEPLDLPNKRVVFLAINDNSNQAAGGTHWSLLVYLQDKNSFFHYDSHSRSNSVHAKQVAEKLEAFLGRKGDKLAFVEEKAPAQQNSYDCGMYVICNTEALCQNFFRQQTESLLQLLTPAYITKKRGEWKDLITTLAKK

[6] = target: Eukaryotic elongation factor 2 kinase (Homo sapiens, UniProt O00418); type: functional
Insulin receptor = Insulin receptor (Homo sapiens, UniProt P06213); type: functional;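 further: insulin receptor kinase tested as one member of a kinome-wide kinase panel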
[7] = target: Serine/threonine-protein kinase PLK4 (Homo sapiens, UniProt O00444); type: functional;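 further: PLK4 measured as one member of a kinome-wide kinase profiling panel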
[8] = target: Calcium/calmodulin-dependent protein kinase type 1 (Homo sapiens, UniProt Q14012); type: functional
[9] = target: Mitogen-activated protein kinase kinase kinase kinase 5 (Homo sapiens, UniProt Q9Y4K4); type: functional;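 further: measured as one member of a kinome-spanning kinase panel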
[10] = target: Mitogen-activated protein kinase kinase kinase 20 (Homo sapiens, UniProt Q9NYL2); type: functional
[11] = target: Proto-oncogene tyrosine-protein kinase Src (Homo sapiens, UniProt P12931); type: functional;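 further: SRC entry within a kinome-wide kinase profiling panel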
[12] = target: Serine/threonine-protein kinase Chk2 (Homo sapiens, UniProt O96017); type: functional;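 further: CHEK2 entry within a kinome-wide screening panel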
[13] = target: Tyrosine-protein kinase Fyn (Homo sapiens, UniProt P06241); type: functional
[14] = target: 3-phosphoinositide-dependent protein kinase 1 (Homo sapiens, UniProt O15530); type: functional;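 further: value comes from the Navigating the Kinome panel, PDPK1 member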
[15] = target: Hepatocyte growth factor receptor (Homo sapiens, UniProt P08581); type: functional;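 further: kinase panel profiling across the kinome, with MET as the panel member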
[16] = target: Mitogen-activated protein kinase 9 (Homo sapiens, UniProt P45984); type: functional;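 further: value from a kinome panel profiling assay, MAPK9 panel entry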
[17] = target: Tyrosine-protein kinase ITK/TSK (Homo sapiens, UniProt Q08881); type: functional;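 further: affinity for ITK measured as one member of a broad kinase panel profiling binding across the kinome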
[18] = target: Protein kinase C gamma type (Homo sapiens, UniProt P05129); type: functional
[19] = target: Tyrosine-protein kinase ABL1 (Homo sapiens, UniProt P00519); type: functional
[20] = target: Dual specificity protein kinase CLK2 (Homo sapiens, UniProt P49760); type: functional
[21] = target: MAP/microtubule affinity-regulating kinase 3 (Homo sapiens, UniProt P27448); type: functional;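 further: MARK3 affinity measured as one member of a kinome panel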
Ephrin type-A receptor 2 = Ephrin type-A receptor 2 (Homo sapiens, UniProt P29317); type: functional;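 further: EPHA2 tested as one member of a kinome-wide kinase panel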
Ephrin type-A receptor 2, sequence (P29317 whole entry): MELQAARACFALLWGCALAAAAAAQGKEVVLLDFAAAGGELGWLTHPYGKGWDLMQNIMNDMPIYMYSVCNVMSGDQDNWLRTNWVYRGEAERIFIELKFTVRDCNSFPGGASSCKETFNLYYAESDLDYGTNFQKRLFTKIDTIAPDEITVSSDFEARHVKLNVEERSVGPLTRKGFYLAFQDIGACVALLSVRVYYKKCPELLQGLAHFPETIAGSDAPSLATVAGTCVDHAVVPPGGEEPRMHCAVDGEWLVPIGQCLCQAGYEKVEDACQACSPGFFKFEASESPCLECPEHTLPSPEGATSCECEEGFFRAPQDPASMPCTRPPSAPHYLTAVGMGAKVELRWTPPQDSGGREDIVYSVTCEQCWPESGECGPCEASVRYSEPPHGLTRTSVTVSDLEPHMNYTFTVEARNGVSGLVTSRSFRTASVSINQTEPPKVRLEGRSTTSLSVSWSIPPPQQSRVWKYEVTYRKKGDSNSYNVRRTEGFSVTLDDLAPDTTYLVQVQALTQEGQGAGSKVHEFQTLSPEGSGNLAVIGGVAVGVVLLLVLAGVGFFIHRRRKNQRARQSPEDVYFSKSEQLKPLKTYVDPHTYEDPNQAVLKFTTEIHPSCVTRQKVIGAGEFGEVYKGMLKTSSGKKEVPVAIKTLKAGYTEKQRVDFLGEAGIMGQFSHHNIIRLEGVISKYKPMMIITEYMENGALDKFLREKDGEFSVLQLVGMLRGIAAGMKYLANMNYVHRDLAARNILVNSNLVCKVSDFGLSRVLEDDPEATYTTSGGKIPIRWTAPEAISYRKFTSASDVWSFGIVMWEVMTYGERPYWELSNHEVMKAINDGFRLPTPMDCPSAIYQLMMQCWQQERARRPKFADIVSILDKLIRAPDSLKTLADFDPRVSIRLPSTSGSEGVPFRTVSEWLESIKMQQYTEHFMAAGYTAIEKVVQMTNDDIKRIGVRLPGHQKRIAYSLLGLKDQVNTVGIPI

Mitogen-activated protein kinase kinase kinase kinase 5, sequence (Q9Y4K4 whole entry): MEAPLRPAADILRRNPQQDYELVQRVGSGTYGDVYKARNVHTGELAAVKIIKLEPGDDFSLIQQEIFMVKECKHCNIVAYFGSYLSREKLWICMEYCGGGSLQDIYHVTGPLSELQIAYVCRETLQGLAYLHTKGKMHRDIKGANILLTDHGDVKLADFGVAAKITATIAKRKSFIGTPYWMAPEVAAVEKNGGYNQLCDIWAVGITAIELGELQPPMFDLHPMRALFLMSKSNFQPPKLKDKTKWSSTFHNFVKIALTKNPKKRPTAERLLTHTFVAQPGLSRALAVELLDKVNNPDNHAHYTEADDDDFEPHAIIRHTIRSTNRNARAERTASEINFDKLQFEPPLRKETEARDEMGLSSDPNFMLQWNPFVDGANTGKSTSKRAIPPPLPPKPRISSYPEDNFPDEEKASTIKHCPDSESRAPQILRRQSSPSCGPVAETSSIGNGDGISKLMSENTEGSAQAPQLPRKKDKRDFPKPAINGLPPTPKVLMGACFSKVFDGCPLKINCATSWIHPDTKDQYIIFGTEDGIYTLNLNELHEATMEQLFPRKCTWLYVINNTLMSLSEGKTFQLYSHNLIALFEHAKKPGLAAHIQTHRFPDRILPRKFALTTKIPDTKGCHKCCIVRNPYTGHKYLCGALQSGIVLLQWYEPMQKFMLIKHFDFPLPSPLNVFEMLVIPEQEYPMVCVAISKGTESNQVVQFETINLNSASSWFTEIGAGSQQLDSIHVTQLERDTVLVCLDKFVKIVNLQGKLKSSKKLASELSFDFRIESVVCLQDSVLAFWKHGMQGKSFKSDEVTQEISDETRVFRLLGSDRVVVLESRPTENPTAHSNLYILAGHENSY
Tyrosine-protein kinase ITK/TSK, sequence (Q08881 whole entry): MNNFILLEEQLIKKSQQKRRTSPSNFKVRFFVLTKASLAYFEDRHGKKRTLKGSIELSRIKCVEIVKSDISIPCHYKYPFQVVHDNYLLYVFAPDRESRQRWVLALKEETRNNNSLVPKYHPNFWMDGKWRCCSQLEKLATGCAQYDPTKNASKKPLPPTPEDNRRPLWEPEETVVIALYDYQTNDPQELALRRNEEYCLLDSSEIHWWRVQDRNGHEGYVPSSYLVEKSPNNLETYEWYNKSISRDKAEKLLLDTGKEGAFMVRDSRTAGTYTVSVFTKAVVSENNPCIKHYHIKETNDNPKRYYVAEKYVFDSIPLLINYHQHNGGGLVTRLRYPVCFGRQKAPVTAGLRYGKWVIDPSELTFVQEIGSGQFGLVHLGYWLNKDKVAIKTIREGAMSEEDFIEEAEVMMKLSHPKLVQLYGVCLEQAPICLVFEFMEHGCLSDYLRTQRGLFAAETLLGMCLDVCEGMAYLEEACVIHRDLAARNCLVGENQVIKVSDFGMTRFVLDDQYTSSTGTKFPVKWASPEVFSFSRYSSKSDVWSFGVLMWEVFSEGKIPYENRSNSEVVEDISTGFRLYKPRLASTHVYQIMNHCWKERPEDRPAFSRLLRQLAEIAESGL
Dual specificity protein kinase CLK2, sequence (P49760 whole entry): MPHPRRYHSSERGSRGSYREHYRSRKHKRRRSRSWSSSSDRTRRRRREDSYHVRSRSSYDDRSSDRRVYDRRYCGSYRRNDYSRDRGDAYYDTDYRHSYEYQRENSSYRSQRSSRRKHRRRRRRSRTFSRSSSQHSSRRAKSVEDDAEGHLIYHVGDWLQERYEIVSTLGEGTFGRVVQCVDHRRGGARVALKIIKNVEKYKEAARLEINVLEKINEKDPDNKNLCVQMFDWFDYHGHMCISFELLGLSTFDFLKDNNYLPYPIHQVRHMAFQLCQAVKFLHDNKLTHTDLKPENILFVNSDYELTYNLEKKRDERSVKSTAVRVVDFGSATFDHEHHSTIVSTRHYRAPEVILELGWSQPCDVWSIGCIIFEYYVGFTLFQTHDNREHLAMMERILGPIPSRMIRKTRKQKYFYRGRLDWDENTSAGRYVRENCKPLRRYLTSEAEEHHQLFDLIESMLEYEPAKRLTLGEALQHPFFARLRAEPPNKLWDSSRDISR
3-phosphoinositide-dependent protein kinase 1, sequence (O15530 whole entry): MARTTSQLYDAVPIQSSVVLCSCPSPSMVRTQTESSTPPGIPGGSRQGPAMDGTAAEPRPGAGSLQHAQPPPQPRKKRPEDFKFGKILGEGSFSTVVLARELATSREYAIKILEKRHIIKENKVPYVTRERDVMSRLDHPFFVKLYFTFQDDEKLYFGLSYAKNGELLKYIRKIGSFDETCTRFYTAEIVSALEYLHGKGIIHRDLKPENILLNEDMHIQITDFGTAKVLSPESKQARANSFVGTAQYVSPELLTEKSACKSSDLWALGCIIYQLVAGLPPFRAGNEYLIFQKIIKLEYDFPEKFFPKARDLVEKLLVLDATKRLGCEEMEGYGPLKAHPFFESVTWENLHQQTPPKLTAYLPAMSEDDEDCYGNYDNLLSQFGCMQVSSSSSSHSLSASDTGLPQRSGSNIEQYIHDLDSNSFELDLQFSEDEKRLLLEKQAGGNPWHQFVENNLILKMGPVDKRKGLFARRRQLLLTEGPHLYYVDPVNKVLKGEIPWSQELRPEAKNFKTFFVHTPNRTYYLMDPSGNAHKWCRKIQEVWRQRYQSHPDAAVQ
Calcium/calmodulin-dependent protein kinase type 1, sequence (Q14012 whole entry): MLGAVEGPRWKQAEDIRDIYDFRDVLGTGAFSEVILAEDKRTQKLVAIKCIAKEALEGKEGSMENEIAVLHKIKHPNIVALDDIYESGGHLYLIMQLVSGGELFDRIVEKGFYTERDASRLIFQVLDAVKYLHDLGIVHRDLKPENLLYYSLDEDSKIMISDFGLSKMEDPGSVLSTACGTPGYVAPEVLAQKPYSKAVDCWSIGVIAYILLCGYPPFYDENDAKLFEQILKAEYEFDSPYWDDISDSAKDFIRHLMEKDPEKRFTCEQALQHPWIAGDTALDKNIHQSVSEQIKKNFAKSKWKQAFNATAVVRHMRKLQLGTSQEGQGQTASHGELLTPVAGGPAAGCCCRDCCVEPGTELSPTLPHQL
Mitogen-activated protein kinase 9, sequence (P45984 whole entry): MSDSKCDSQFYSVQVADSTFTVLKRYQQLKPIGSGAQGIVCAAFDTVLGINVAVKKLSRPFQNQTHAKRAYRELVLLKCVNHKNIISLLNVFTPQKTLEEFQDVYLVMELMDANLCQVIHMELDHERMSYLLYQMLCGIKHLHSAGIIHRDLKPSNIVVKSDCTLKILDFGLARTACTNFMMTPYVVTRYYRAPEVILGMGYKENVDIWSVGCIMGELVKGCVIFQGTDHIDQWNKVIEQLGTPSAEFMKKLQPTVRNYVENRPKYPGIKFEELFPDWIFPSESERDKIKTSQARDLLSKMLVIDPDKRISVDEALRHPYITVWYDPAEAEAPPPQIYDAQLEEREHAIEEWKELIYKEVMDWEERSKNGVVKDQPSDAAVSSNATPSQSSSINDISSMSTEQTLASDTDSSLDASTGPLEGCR
Proto-oncogene tyrosine-protein kinase Src, sequence (P12931 2-536 limits assumed): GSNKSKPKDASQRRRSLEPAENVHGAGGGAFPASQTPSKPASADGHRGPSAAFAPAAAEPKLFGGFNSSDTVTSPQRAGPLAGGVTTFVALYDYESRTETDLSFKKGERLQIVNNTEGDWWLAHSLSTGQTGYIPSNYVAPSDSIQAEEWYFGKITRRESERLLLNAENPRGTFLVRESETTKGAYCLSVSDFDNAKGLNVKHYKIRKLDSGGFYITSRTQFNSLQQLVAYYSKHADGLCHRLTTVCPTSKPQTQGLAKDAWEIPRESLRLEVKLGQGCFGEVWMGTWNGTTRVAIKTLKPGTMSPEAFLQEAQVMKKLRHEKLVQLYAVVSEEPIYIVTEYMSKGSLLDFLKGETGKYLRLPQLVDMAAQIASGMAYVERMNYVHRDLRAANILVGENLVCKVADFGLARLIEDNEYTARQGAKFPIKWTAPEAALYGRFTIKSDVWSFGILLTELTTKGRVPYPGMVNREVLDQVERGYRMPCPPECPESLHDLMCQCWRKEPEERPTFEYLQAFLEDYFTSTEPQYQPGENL

SMILES: CCCc1nc2c(=O)n(C)c(=O)nc-2n(C)n1
- AC50 (Caspase-6): 63.6 nM (active)
- AC50 [1]: 3.39 µM (active)
- AC50 [2]: 249 nM (active)
- IC50 [3]: 527 nM (active)
- AC50 [4]: 1.13 µM (active)

- IC50 (Caspase-3): 30 µM (active)
SMILES: CC(=O)c1ccc(NC2=C(N3CCOCC3)C(=O)c3ccccc3C2=O)cc1
- IC50 [5]: 18.8 µM (active)

- Ki [6]: > 3.98 µM (inactive)
- Ki (Insulin receptor): > 5.01 µM (inactive)
- Ki [7]: 200 nM (active)
- Ki [8]: > 7.94 µM (inactive)
- Ki [9]: 200 nM (active)
- Ki [10]: > 7.94 µM (inactive)
- Ki [11]: 5.01 µM (active)
- Ki [12]: > 5.01 µM (inactive)
- Ki [13]: > 794 nM (inactive)
- Ki [14]: > 3.98 µM (inactive)
- Ki [15]: > 3.16 µM (inactive)
- Ki [16]: > 3.98 µM (inactive)
- Ki [17]: 1 µM (active)
- Ki [18]: > 7.94 µM (inactive)
- Ki [19]: > 631 nM (inactive)
- Ki [20]: > 7.94 µM (inactive)
- Ki [21]: > 6.31 µM (inactive)
- Ki (Ephrin type-A receptor 2): > 3.16 µM (inactive)
SMILES: COc1cc2ncn(-c3cc(OCc4ccccc4C(F)(F)F)c(C(N)=O)s3)c2cc1OC [GW843682X]
